Laboratory results taken from the supplement of paper PMC10307832.

What was measured:
Assay in all cases: relative viability (nuclei count vs DMSO), 5 days (fraction); higher = more cells survive
NCI-H1355 = system: NCI-H1355
How it was run: (§1)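 Lung cancer cell lines, seeded in 1536-well plates, were treated the following day by pin tool with a single drug or with five library-drug doses (not always all listed) in √10 steps on top of a fixed anchor-drug dose. Cells were fixed and nuclei stained in one step after 5 days, and nuclei were counted. Relative viability is the nuclei count for treated wells divided by that for vehicle wells, reported as medians of duplicate plates.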

NCI-H1793 = system: NCI-H1793
How it was run: as §1

A-427 = system: A-427
How it was run: as §1

NCI-H520 = system: NCI-H520
How it was run: as §1

NCI-H2228 = system: NCI-H2228
How it was run: as §1

LOU-NH91 = system: LOU-NH91
How it was run: as §1

NCI-H1650 = system: NCI-H1650
How it was run: as §1

NCI-H23 = system: NCI-H23
How it was run: as §1

NCI-H1915 = system: NCI-H1915
How it was run: as §1

RERF-LC-KJ = system: RERF-LC-KJ
How it was run: as §1

NCI-H2347 = system: NCI-H2347
How it was run: as §1

Structure (SMILES): O=c1[nH]c2ccccc2n1C1CCN(CCCC(c2ccc(F)cc2)c2ccc(F)cc2)CC1 [Pimozide] + CC1(C)CCC(c2ccc(Cl)cc2)=C(CN2CCN(c3ccc(C(=O)NS(=O)(=O)c4ccc(N[C@H](CCN5CCOCC5)CSc5ccccc5)c(S(=O)(=O)C(F)(F)F)c4)cc3)CC2)C1 [Navitoclax] (partner 0.5 µM)
- relative viability (NCI-H1355; first compound 0.253 µM): 1.01
- relative viability (NCI-H1355; first compound 0.8 µM): 0.908
- relative viability (NCI-H1355; first compound 2.53 µM): 0.959
- relative viability (NCI-H1355; first compound 8 µM): 0.856
- relative viability (NCI-H1793; first compound 0.08 µM): 0.532
- relative viability (NCI-H1793; first compound 0.253 µM): 0.485
- relative viability (NCI-H1793; first compound 0.8 µM): 0.389
- relative viability (NCI-H1793; first compound 2.53 µM): 0.48
- relative viability (NCI-H1793; first compound 8 µM): 0.494
- relative viability (A-427; first compound 0.08 µM): 0.965
- relative viability (A-427; first compound 0.253 µM): 1.01
- relative viability (A-427; first compound 0.8 µM): 0.913
- relative viability (A-427; first compound 2.53 µM): 0.88
- relative viability (A-427; first compound 8 µM): 0.918
- relative viability (NCI-H520; first compound 0.08 µM): 1.13
- relative viability (NCI-H520; first compound 0.253 µM): 1.05
- relative viability (NCI-H520; first compound 0.8 µM): 1.16
- relative viability (NCI-H520; first compound 2.53 µM): 1.07
- relative viability (NCI-H520; first compound 8 µM): 1.15
- relative viability (NCI-H2228; first compound 0.08 µM): 0.758
- relative viability (NCI-H2228; first compound 0.253 µM): 0.715
- relative viability (NCI-H2228; first compound 0.8 µM): 0.845
- relative viability (NCI-H2228; first compound 2.53 µM): 0.616
- relative viability (NCI-H2228; first compound 8 µM): 0.614
- relative viability (LOU-NH91; first compound 0.08 µM): 0.309
- relative viability (LOU-NH91; first compound 0.253 µM): 0.734
- relative viability (LOU-NH91; first compound 0.8 µM): 0.736
- relative viability (LOU-NH91; first compound 2.53 µM): 0.788
- relative viability (LOU-NH91; first compound 8 µM): 0.739
- relative viability (NCI-H1650; first compound 0.08 µM): 0.979
- relative viability (NCI-H1650; first compound 0.253 µM): 1.17
- relative viability (NCI-H1650; first compound 0.8 µM): 1.02
- relative viability (NCI-H1650; first compound 2.53 µM): 1.21
- relative viability (NCI-H1650; first compound 8 µM): 0.761
- relative viability (NCI-H23; first compound 0.08 µM): 0.882
- relative viability (NCI-H23; first compound 0.253 µM): 0.807
- relative viability (NCI-H23; first compound 0.8 µM): 0.732
- relative viability (NCI-H23; first compound 2.53 µM): 0.844
- relative viability (NCI-H23; first compound 8 µM): 0.801
- relative viability (NCI-H1915; first compound 0.08 µM): 0.784
- relative viability (NCI-H1915; first compound 0.253 µM): 0.705
- relative viability (NCI-H1915; first compound 0.8 µM): 0.777
- relative viability (NCI-H1915; first compound 2.53 µM): 0.777
- relative viability (NCI-H1915; first compound 8 µM): 0.786
- relative viability (RERF-LC-KJ; first compound 0.08 µM): 0.913
- relative viability (RERF-LC-KJ; first compound 0.253 µM): 0.855
- relative viability (RERF-LC-KJ; first compound 0.8 µM): 0.885
- relative viability (RERF-LC-KJ; first compound 2.53 µM): 1.04
- relative viability (RERF-LC-KJ; first compound 8 µM): 0.92
- relative viability (NCI-H2347; first compound 0.08 µM): 0.799
- relative viability (NCI-H2347; first compound 0.253 µM): 0.732
- relative viability (NCI-H2347; first compound 0.8 µM): 0.73
- relative viability (NCI-H2347; first compound 2.53 µM): 0.683
- relative viability (NCI-H2347; first compound 8 µM): 0.819
